Results: patent publication US7732443B2, “Therapeutic substituted cyclopentanes” (priority 2008, dated 2010)

Tests used:
Assay type in all cases: in vivo
[1] = tested on: normotensive dogs; assay: Intraocular pressure (IOP) in normotensive dogs
Experimental: Compounds from above are tested in vivo to measure its ability to reduce intraocular pressure. Compound 14a is tested in normotensive dogs.

[2] = tested on: laser-induced hypertensive monkeys; assay: Intraocular pressure (IOP) in laser-induced hypertensive monkeys
[3] = tested on: lashes and adjacent hairs of patients; assay: Lash and hair appearance in glaucoma patients treated in one eye only; settings: glaucoma patient treated in one eye
Description: In the course of treating patients having glaucoma, treatment may only be appropriate in one eye. […] The lash appearance on the lids of the treated eyes would have appeared quite attractive if it represented a bilateral phenomenon. As a result of its asymmetric nature, the long lashes on one side could be construed as disturbing from a cosmetic standpoint. A systemic examination was preformed as a result of the asymmetric phenomenon. It soon became apparent that this altered appearance was not an isolated finding. […] Definite differences could be identified to varying degrees in the lashes and adjacent hairs of all patients who were taking the drug on a unilateral basis for longer than 6 months.
The changes in the lashes were apparent on gross inspection in several patients once attention was focused on the issue. In those with light colored hair and lashes, the differences were only seen easily with the aid of the high magnification and lighting capabilities of the slit lamp biomicroscope. In the course of glaucoma follow-up examination, attention is generally immediately focused on the eye itself. As a result of the high power magnification needed only one eye is seen at a time and the eye is seen at a high enough power that the lashes are not in focus. […]

| SMILES | intraocular pressure (IOP) change from baseline [1] | intraocular pressure (IOP) change from baseline [2] | lash appearance, treated eye versus non-treated eye [3] |
| --- | --- | --- | --- |
| CCCCCC(O)c1ccc(C2C(O)CC(Cl)C2Cc2cccc(CCC(=O)OCCO)c2)cc1 (centres unmarked) [Compound 25a] | decreases from baseline | decreases from baseline | – |
| CCCCCC(O)c1ccc(C2C(O)CC(Cl)C2Cc2cccc(CCC(=O)OCCN3CCOCC3)c2)cc1 (centres unmarked) [Compound 25b] | decreases from baseline | decreases from baseline | – |
| CCCCCC(O)c1ccc(C2C(O)CC(Cl)C2CCCc2ncc(C(=O)OCCO)s2)cc1 (centres unmarked) [Compound 34a] | decreases from baseline | decreases from baseline | – |
| CCCCCC(O)c1ccc(C2C(O)CC(Cl)C2CCCc2ncc(C(=O)OCCN3CCOCC3)s2)cc1 (centres unmarked) [Compound 34b] | decreases from baseline | decreases from baseline | – |
| CCCCCC(O)c1ccc(C2C(O)CC(F)C2CC=CCCCC(=O)OCCO)cc1 (centres unmarked) [Compound 40a] | decreases from baseline | decreases from baseline | – |
| CCCCCC(O)c1ccc(C2C(O)CC(F)C2CC=CCCCC(=O)OCCN2CCOCC2)cc1 (centres unmarked) [Compound 40b] | decreases from baseline | decreases from baseline | – |
| CCCCCC(O)c1ccc(C2C(O)CC(Cl)C2CC=CCCCC(=O)OCCO)cc1 (centres unmarked) [Compound 46a] | decreases from baseline | decreases from baseline | – |
| CCCCCC(O)c1ccc(C2C(O)CC(Cl)C2CC=CCCCC(=O)OCCN2CCOCC2)cc1 (centres unmarked) [Compound 46b] | decreases from baseline | decreases from baseline | – |
| CCCCCC(O)c1ccc(C2C(O)CC(Cl)C2CC=CCCCC(=O)OCCO)cc1 (centres unmarked) [Compound 51a] | decreases from baseline | decreases from baseline | – |
| CCCCCC(O)c1ccc(C2C(O)CC(Cl)C2CC=CCCCC(=O)OCCN2CCOCC2)cc1 (centres unmarked) [Compound 51b] | decreases from baseline | decreases from baseline | – |
| CCCCCCc1ccc(C2C(O)CC(Cl)C2CC=CCCCC(=O)OCCO)cc1 (centres unmarked) [Compound 63a] | decreases from baseline | decreases from baseline | – |
| CCCCCCc1ccc(C2C(O)CC(Cl)C2CC=CCCCC(=O)OCCN2CCOCC2)cc1 (centres unmarked) [Compound 63b] | decreases from baseline | decreases from baseline | – |
| CCCCCC(O)c1ccc(C2C(O)CC(Cl)C2CC=CCCCC(=O)OCCO)cc1 (centres unmarked) [Compound 68a] | decreases from baseline | decreases from baseline | – |
| CCCCCC(O)c1ccc(C2C(O)CC(Cl)C2CC=CCCCC(=O)OCCN2CCOCC2)cc1 (centres unmarked) [Compound 68b] | decreases from baseline | decreases from baseline | – |
| CCNC(=O)CCC/C=C\C[C@@H]1[C@@H](/C=C/[C@@H](O)CCc2ccccc2)[C@H](O)C[C@@H]1O [bimatoprost] | – | – | longer, thicker, and fuller in the treated eye than in the non-treated eye |
